Patent US6593511B1, “Models of chronic and acute inflammatory diseases” (Bioseek, Inc., priority 2000, dated 2003)

Experiments:
scid/scid mice = assay: Effect of co-factors on disease induction in the scid/scid CD4+/CD25- transfer model; format: in vivo, mouse; conditions: 20 μg s.c. on day one after cell transfer
Description: Induction of chronic skin inflammation. Briefly, splenocytes were collected from 5-10 week old donor mice (Balb/c) and donor population was either enriched for CD4+ and depleted of CD25+ cells, or depleted of CD25+ cells only. The collected cell population was injected subcutaneously (s.c.) into C.B-17/Icr scid/scid mice, aged 4-8 weeks (usually 3×10^5 to 5×10^5 cells per mouse in 200-400 μL). A systemic (s.c., i.p. or i.v.) injection of an immuno-modulating agent was given 24 hours following cell transfer. Alternatively, these co-injections were given at the same time to one week after. The co-injection was, alternatively, repeated every other day or once a week for the entire course of the experiment.
After 24 hours all recipient mice were given a co-injection of 20 μg LPS (or 10 μg SEB) s.c. Disease causing T cells then proliferated and began to induce inflammation over a period of 4 weeks
The thickness of the skin on the ear was measured using a Dyer micrometer. The micrometer was first modified to better perform in the measurement of soft tissue. The contact pads are reduced to 4 mm, and the spring tension is reduced to <3 lbs.
Co-factor injections are important for their mitogenic properties. […]
The effect of different co-factors on disease induction was assessed. […]

psoriatic scid/scid mice = assay: Treatment of established chronic skin inflammation (psoriasis) in scid/scid mice after transfer of CD4+/CD25- T cells and LPS; ear thickness and histology; format: in vivo, mouse
Text: Mice. Female Balb/c mice (donor mice) were purchased from Jackson Labs (Bar Harbor, Me.) or similar source, and C.B-17/Icr scid/scid (recipient mice) were purchased from Taconic (Germantown, N.Y.) or Charles River. All mice were housed in a specific pathogen free environment and were used between 4-8 wk of age. Mice were housed 2-5 per microisolator. All scid/scid mice were handled with gloves under a class II hood, fed sterile food and water ad libitum, and maintained in sterilized microisolators that are changed twice weekly. Donor mice were housed in conventional cages that were changed weekly.
Induction of chronic skin inflammation. Briefly, splenocytes were collected from 5-10 week old donor mice (Balb/c) and donor population was either enriched for CD4+ and depleted of CD25+ cells, or depleted of CD25+ cells only. The collected cell population was injected subcutaneously (s.c.) into C.B-17/Icr scid/scid mice, aged 4-8 weeks (usually 3×10^5 to 5×10^5 cells per mouse in 200-400 μL). […]
Cell Selection: Balb/c mouse spleens were collected and homogenized by pressing through 100 μ cell strainer (Falcon) and suspended in cold PBS supplemented with 10% FBS. […] The resultant cell quantities were 5-8 million cells per spleen. […]
The thickness of the skin on the ear was measured using a Dyer micrometer. […]

lipopolysaccharide [LPS]
incidence of disease (scid/scid mice; 5/5): 100%
average ear thickness (scid/scid mice; week 7, n=5 mice, +/- SEM, 30 μm+/−1.2 without co-factor, p=3.6×10^−3): 36.4 μm

methylprednisone
skin thickness after treatment (psoriatic scid/scid mice; after 8 days of 40 mg/kg twice/day, p=2.01×10^−6): 22.4 μm
skin thickness before treatment (psoriatic scid/scid mice; baseline before 40 mg/kg twice/day for 8 days): 33.7 μm
